In ChEMBL document CHEMBL1629464, “Aldehyde oxidase: an enzyme of emerging importance in drug discovery” (J Med Chem, 2010):

Target: T1, Aldehyde oxidase 1 (Mus musculus, UniProt O54754)
T1 sequence (O54754 whole entry): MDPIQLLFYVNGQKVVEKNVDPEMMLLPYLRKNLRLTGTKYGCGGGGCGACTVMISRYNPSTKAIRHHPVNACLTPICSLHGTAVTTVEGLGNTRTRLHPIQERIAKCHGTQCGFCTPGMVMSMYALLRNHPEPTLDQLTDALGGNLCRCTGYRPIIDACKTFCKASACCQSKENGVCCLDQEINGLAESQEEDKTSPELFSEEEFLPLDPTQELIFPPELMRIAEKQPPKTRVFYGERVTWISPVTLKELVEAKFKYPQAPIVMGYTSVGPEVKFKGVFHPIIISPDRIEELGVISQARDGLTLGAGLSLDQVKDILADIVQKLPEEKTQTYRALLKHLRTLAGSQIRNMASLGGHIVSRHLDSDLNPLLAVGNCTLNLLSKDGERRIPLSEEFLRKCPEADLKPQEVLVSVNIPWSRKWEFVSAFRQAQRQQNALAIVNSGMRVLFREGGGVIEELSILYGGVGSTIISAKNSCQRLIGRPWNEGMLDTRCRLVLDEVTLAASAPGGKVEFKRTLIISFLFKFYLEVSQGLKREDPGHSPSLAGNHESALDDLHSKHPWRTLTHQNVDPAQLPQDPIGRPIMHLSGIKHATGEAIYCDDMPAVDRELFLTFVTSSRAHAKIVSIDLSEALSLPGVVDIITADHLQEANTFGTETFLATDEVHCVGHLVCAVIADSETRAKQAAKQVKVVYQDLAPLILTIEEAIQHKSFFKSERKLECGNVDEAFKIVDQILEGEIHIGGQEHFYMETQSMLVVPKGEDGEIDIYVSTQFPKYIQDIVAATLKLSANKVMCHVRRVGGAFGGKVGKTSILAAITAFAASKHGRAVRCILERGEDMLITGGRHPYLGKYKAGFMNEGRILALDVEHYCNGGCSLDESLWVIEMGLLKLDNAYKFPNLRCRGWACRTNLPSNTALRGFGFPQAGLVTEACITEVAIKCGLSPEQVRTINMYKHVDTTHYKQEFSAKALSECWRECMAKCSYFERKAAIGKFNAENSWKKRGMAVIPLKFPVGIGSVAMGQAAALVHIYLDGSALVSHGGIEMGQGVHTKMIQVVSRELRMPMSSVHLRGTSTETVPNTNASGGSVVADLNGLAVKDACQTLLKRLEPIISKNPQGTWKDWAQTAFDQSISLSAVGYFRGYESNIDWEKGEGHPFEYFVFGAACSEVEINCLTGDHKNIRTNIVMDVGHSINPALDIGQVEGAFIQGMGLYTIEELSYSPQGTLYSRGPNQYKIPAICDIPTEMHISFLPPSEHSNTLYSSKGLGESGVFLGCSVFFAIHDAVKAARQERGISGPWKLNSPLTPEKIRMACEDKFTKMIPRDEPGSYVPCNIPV
Assay: Inhibition of mouse aldehyde oxidase

Q: How did the IC50 turn out when `OCCN1CCN(CCCN2c3ccccc3Sc3ccc(Cl)cc32)CC1` [PERPHENAZINE] was run?
A: 6.1 µM
